In patent publication US20180163177A1, “SERUM-FREE CULTURE MEDIUM AND METHOD FOR EXPANDING HEMATOPOIETIC STEM CELLS” (HealthBanks Biotech Co. Ltd., priority 2016, published 2018):

Tested on: CD34+ HSC
Assay: HSC expansion without feeder layer, in SF-UCM or concentrated SF-UCM with supplements, 12-day culture
Type: cell-based
Conditions: day 12; no feeder layer; SCGM with 6 cytokines and hydrocortisone
From the text: To test potential replacement for the feeder layers, we have tested a serum-free umbilical cord mesenchymal stem cell conditioned medium (SF-UCM) from UC-MSC. The serum-free umbilical cord mesenchymal stem cell conditioned medium is for example produced by the method described above, comprising the steps of: (a) culturing an umbilical cord mesenchymal stem cell in a serum-free cell culture medium (e.g. serum-free SCGM), and (b) isolating the conditioned cell culture medium.
In FIG. 3A and FIG. 3B, the positive control (PC) group is in IMDM as described above. The PC & S1 groups shown in FIG. 3A and 3B are grown as follows: At day 0, CD34+ HSC are thawed and co-cultured with UC-MSC feeder for 12 days with a cell density of 2.5×10^4 cells/ml, using 5% CS (cord serum)/IMDM medium containing the 6 cytokines and hydrocortisone for PC group or using SCGM containing 6 cytokines, hydrocortisone and 4 supplements for S1 group.
The S3-2 group was grown as follows: At day 0, CD34+ HSC are thawed and cultured in a culture medium mixture of 50% (v/v) SF-UCM and 50% (v/v) fresh SCGM containing 6 cytokines, hydrocortisone and 4 supplements with a cell density of 2.5×10^4 cells/ml for 12 days. The 6 cytokines, hydrocortisone and 4 supplements used herein are the same as described in example 2.
During 12-day culture, 50% culture medium is replenished as well as newly prepared UC-MSC feeder every 4 days, and CD34+ cells are maintained at a cell density of 2.5-5×10^4 cells/ml. At day 12, cumulative total cell expansion folds and CD34+ expansion folds are calculated.
The following experiment is performed to evaluate the effect of replacing feeder layers with SF-UCM or concentrated SF-UCM. The SF-UCM obtained in Example 3 was further concentrated with a 5-10 kDa cut-off membrane (preferably a 5 kDa cut-off membrane) to obtain 10 times concentrated (in volume) conditioned medium. The concentrated conditioned medium was filtered with a 0.22 μm filter, and the filtrate is collected to obtain the desired con. SF-UCM (abbreviated as “c-SF-UCM”). The results of replacing the feeder layers with SF-UCM or con.
In FIG. 4A and 4B, the PC, Sl, and S3-2 groups are the same as described in Example 3. The S3-3 group is as follows: At day 0, CD34+ HSC are thawed and cultured in a culture medium mixture of 5% (v/v) concentrated SF-UCM and 95% (v/v) SCGM containing 6 cytokines, 4 supplements, and hydrocortisone with a cell density of 2.5×10^4 cells/ml for 12 days. The 6 cytokines, hydrocortisone and 4 supplements used herein are the same as described in example 2. The above medium mixture is 50% replenished every 4 days and the cells (including CD34+ cells) are maintained at a cell density of 2.5-10×10^4 cells/ml. At day 12, cumulative total cell expansion folds and CD34+ (ISHAGE) expansion folds are calculated.
At day 0, CD34+ HSC are thawed and cultured in a corresponding culture medium in the following groups: (1) SCGM+SP+UCM group: a culture medium mixture of 5% (v/v) c-SF-UCM and 95% (v/v) SCGM containing 6 cytokines, 4 supplements and hydrocortisone; (2) SCGM+SP group: SCGM containing 6 cytokines, 4 supplements and hydrocortisone; (3) SCGM+UCM group: a culture medium mixture of 5% (v/v) c-SF-UCM and 95% (v/v) SCGM containing 6 cytokines and hydrocortisone; and (4) SCGM group: SCGM containing 6 cytokines and hydrocortisone. The 6 cytokines, hydrocortisone and 4 supplements used herein are the same as described in example 2.
The cells are cultured at a cell density of 2.5×10^4 cells/ml. The above medium mixture is 50-80% replenished every 4 days and the cells (including CD34+ cells) are maintained at a cell density of 2.5-10×10^4 cells/ml. At day 12, cumulative total cell expansion folds and CD34+ (ISHAGE) expansion folds are calculated.
In this experiment, the PC group and S3-3 group is the same as the previous examples. The culture medium is 50% replenished every 4 days, and cells are maintained at a cell density of 2.5-5×10^4 cells/ml. […]

Molecule	CD34+ (ISHAGE) expansion folds	cumulative total cell expansion folds
Cc1c(C)c2c(c(C)c1O)CC[C@@](C)(CCC[C@H](C)CCC[C@H](C)CCCC(C)C)O2 [vitamin E, α-tocopherol]	alone is also sufficient in supporting the expansion	alone is also sufficient in supporting the expansion
O=C1O[C@H]([C@@H](O)CO)C(O)=C1O [vitamin C, L-ascorbic acid]	alone can support the expansion	alone can support the expansion
transferrin (TF): transferrin, supplement used at 30 μg/ml	does not further increase the enhancement to any appreciable extent	does not further increase the enhancement to any appreciable extent
